Laboratory results taken from patent US20260049103A1, “PEPTIDE, AND COMPOSITION THEREOF AND USE THEREOF” (WINKEY TECHNOLOGY USA INC, priority 2023, published 2026).
Non-standard residues stand in square brackets, D forms with d. *: point of attachment. Palmitoyl = CCCCCCCCCCCCCCCC(=O)*; Nle = CCCC[C@H](N)C(=O)O

Tests used:
[1] = system: Human keratinocytes (HaCaT); assay: Cell proliferation assay (MTT) in HaCaT cells; format: cell-based; conditions: FIG. 6; for cell activity / proliferation of HaCaT keratinocytes: 72 h, at low concentrations (tested 6.25, 12.5, 25 ppm)
Description: Thiazolyl blue (MTT), dimethyl sulfoxide (DMSO), DMEM culture medium, fetal bovine serum, and PBS.
(§1) Human keratinocytes (HaCaT) were purchased from the Kunming Cell Bank of China Center for Type Culture Collection under the Chinese Academy of Sciences.
Polypeptide group: Peptide (4), peptide (9), peptide (13) and peptide (20). The test concentrations of all the above samples were 6.25 ppm, 12.5 ppm and 25 ppm.
(§2) Blank control group: PBS.
Positive control group: 2% DMSO.
Cells in good exponential growth phase were taken. A 0.25% trypsin digestion solution was added so that digestion allowed the adherent cells to fall off, counting 1 to 4×10^5 cells/mL, which were prepared into a cell suspension.
The cell suspension was inoculated into a 96-well plate with 200 μL/well, and cultured in a constant-temperature CO2 incubator for 24 h.
After changing the medium, samples of the polypeptide groups, the blank control group and the positive control group were added at 20 μL/well respectively, and incubated in a 5% CO2 incubator at 37° C. for 72 h.
20 μL of 5 mg/mL MTT was added to each well and the incubation was continued in the 5% CO2 incubator at 37° C. for 4 h. The original solution was removed and 150 μL/well of DMSO was added. After shaking the plate on a plate shaker for 5 min, a microplate reader was used to determine the OD value of each well at a wavelength of 570 nm, and the cell viability was calculated.
Cell viability=[OD (test sample well)−OD (zero adjustment well)]/[OD (blank control well)−OD (zero adjustment well)]×100%
The MTT assay is a method of detecting cell survival and growth. The measured OD values are directly proportional to cell viability. The higher the cell viability, the larger the OD value.

[2] = system: hyaluronic acid; assay: Determination of hyaluronic acid content in HaCaT cells; format: cell-based, Human; conditions: 12.5 ppm, 48 h, compared with blank control, FIG. 9
Procedure: as §1
Polypeptide group: Peptide (4), peptide (13) and peptide (20). The test concentrations of all the above samples were 12.5 ppm.
as §2
A bottle of HaCaT cells in good exponential growth phase was taken. A 0.25% trypsin digestion solution was added so that digestion allowed the adherent cells to fall off, counting 1 to 4×10^6 cells/mL, which were prepared into a cell suspension.
The cells were inoculated into a 6-well plate at 10^5 cells/well, and grouped when the cells reached approximately 80% confluence. […]
After completion of the culture, cells were scraped off using a cell scraper, and 200 μL of RIPA lysis buffer was added to extract proteins. […] The total protein concentration was quantified to 1 mg/mL using the BCA method. […] The OD value of each well was measured in sequence at 570 nm using a microplate reader within 15 min.
Hyaluronic acid is one of the main matrix ingredients of the human skin epidermis and an important component of the skin barrier. […] This experiment measured the effect of the peptide of the present invention on the hyaluronic acid content to determine whether the peptide of the invention can increase the hyaluronic acid content and thus play a role in moisturizing and anti-aging repair.

[3] = system: hyaluronidase; assay: Hyaluronidase inhibition experiment; format: biochemical; conditions: FIG. 11; for hyaluronidase inhibition rate: at 100 ppm; for inhibition of hyaluronidase activity: at the tested concentrations (50 ppm and 100 ppm)
Description: Spectrophotometer, phosphate buffered saline (PBS), hyaluronic acid, and hyaluronidase.
Peptide (13) and peptide (14). The test concentrations of all the above samples were 50 ppm and 100 ppm.
The experiment was divided into four groups: blank control group A1 (PBS+hyaluronidase), enzyme-free blank control group A2 (PBS+solvent without hyaluronidase), sample group B1 (samples to be tested+hyaluronidase), and enzyme-free sample group B2 (samples to be tested+solvent without hyaluronidase). The total reaction volume of each group was the same.
According to the grouping, 100 μL of CaCl2) (2.5 mmol/L) was mixed with 500 μL of hyaluronidase (500 U/mL) or solvent without hyaluronidase, and 20 μL of the mixture was taken and shaken in a 37° C. constant temperature gas bath oscillator for 20 min. The blank control group was added with 20 μL of PBS and shaken in a 37° C. constant temperature gas bath oscillator for 20 min. The sample groups were added with 20 μL of samples at different concentrations and shaken in a 37° C. constant temperature gas bath oscillator for 20 min. The above groups were added with 40 μL of hyaluronic acid and shaken in a 37° C. constant temperature gas bath oscillator for 40 min. 10 μL of acetylacetone solution was added and shaken in a 50° C. constant temperature gas bath oscillator for 10 min, then placed in an oven at 75° C. for 40 min and at 50° C. for 10 min. After the reaction was completed and cooled, the plastic wrap was quickly removed to avoid the generation of water vapor. Then 100 μL of 96% anhydrous ethanol and 10 μL of Ehrlich reagent were added, and the absorbances were measured at 492 nm.
Hyaluronidase can decompose hyaluronic acid in the body, converting it into low-molecular-weight acidic irritant, thereby causing the release of histamine and inducing sensitive symptoms in the body. In addition, the reduction of hyaluronic acid will destroy the skin barrier function, leading to the loss of moisture inside the skin. Therefore, inhibiting the activity of hyaluronidase can achieve the effects of soothing, moisturizing and repairing the skin barrier.

[4] = system: filaggrin (FLG); assay: Filaggrin expression experiment (UV-irradiated HaCaT cells); format: cell-based, Human; conditions: 80 mJ/cm^2 UV, 24 h, 10-50 ppm, compared with UV group, fluorescence staining, FIG. 10
Procedure: as §1
Polypeptide group: Peptide (4), peptide (9), peptide (13) and peptide (20). The test concentrations of all the above samples were 10 ppm and 50 ppm.
as §2
UV group: UV radiation with PBS.
The frozen HaCaT cells were cultured and passaged at a ratio of 1:2 to about the 5th generation, and the cells in better growth were selected as experiment subjects. The cell suspension was taken and inoculated into a 96-well plate at 10^4 cells/well, complete culture medium was added, and the mixture was cultured in a 5% CO2 incubator at 37° C. for 24 h. A UV photoaging model was established when the cells reached approximately 80% confluence. […]
After incubation, the cells were digested, grown on a cell climbing slice for 12 hours and then fixed. The cells were stained using a filaggrin (FLG) detection kit and observed under a fluorescence microscope after staining.
Filaggrin (FLG) is an important molecule that links keratin fibers in the stratum corneum of human skin. […] In this experiment, 80 mJ/cm^2 UV energy was selected for radiation to establish a skin stratum corneum cell model, and the effect of the sample on FLG expression was detected to analyze whether the peptides of the present invention can promote FLG expression.

Palm-Val-Lys-Leu-Tyr-Gly-Ser-NH2 (Palmitoyl-VKLYGS-NH2; SMILES CCCCCCCCCCCCCCCC(=O)N[C@H](C(=O)N[C@@H](CCCCN)C(=O)N[C@@H](CC(C)C)C(=O)N[C@@H](Cc1ccc(O)cc1)C(=O)NCC(=O)N[C@@H](CO)C(N)=O)C(C)C) [peptide (9)]
cell activity / proliferation of HaCaT keratinocytes [1]: significantly improve cell activity

Palmitoyl-G[Nle]KLY-NH2 [peptide (4)]
hyaluronic acid content [2]: more superior technical effects

Palmitoyl-G[Nle]RLY-NH2 [peptide (20)]
hyaluronic acid content [2]: more superior technical effects
cell activity / proliferation of HaCaT keratinocytes [1]: significantly improve cell activity

Palm-Lys-Val-Lys-Leu-Tyr-OH (Palmitoyl-KVKLY-OH; SMILES CCCCCCCCCCCCCCCC(=O)N[C@@H](CCCCN)C(=O)N[C@H](C(=O)N[C@@H](CCCCN)C(=O)N[C@@H](CC(C)C)C(=O)N[C@@H](Cc1ccc(O)cc1)C(=O)O)C(C)C) [peptide (14)]
hyaluronidase inhibition rate [3]: 40.96%
inhibition of hyaluronidase activity [3]: inhibited the activity of hyaluronidase

Palm-Lys-Val-Lys-Leu-Tyr-NH2 (Palmitoyl-KVKLY-NH2; SMILES CCCCCCCCCCCCCCCC(=O)N[C@@H](CCCCN)C(=O)N[C@H](C(=O)N[C@@H](CCCCN)C(=O)N[C@@H](CC(C)C)C(=O)N[C@@H](Cc1ccc(O)cc1)C(N)=O)C(C)C) [peptide (13)]
hyaluronidase inhibition rate [3]: 49.40%
inhibition of hyaluronidase activity [3]: inhibited the activity of hyaluronidase
FLG content / FLG expression [4]: optimum technical effect

C[S+](C)[O-] [2% DMSO, dimethyl sulfoxide, reference compound]
toxic effect on HaCaT cells (cell viability) ([1]; 72 h incubation, peptides at 6.25, 12.5 and 25 ppm, compared with blank control (PBS)): had a toxic effect on HaCaT cells
